{"source": "patent US20260193293A1", "about": "“PEPTIDES CAPABLE OF INHIBITING PROTEIN-PROTEIN INTERACTIONS AT GABAB1A SUBUNIT AND USES THEREOF” (UNIVERSITY OF COPENHAGEN, priority 2022, published 2026)", "key": {"[1]": {"target": "Sushi domains (SD1/2) protein", "test": "Fluorescence polarization (FP) competition assay with AJAP-1probe, calculated Ki", "format": "binding", "in_short": "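Competition against 25 nM TAMRA-labelled peptide probe binding SD1/2, in PBS pH 7.4 with 1% BSA at rt, read at 530/580 nm. IC50 from sigmoidal dose-response fits, at least triplicate; Ki calculated from IC50 using probe Kd from saturation binding.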"}, "[2]": {"target": "SD1/2", "test": "Solution array of crude APPWT variants, six-point FP inhibition curve", "format": "binding", "settings": "crude peptides of the solution array", "description": "Parallel synthesis in 96 format peptide synthesis was done using Intavis multipep RSi instrument. Fmoc-PAL resins was used (10 mg per well). Fmoc-amino acids (Fmoc-AA) were dissolved in dimethylformamide (DMF) containing 0.3 M OxymaPure. Throughout the synthesis Fmoc-AA were preactivated with diisopropylcarbodiimide (DIC) for 2 min before adding to the resin. Three couplings using 100 μL Fmoc-AA and 10 μL DIC (3 M in DMF) pr well were employed with coupling times of 5, 15 and 60 min. Removal of Fmoc was performed by washing twice with 120 μl per well of 25% piperidine in DMF for 2 and 8 min. Washing steps after deprotection with piperidine and after coupling steps included washing with DMF (150 μL per well) five times. After synthesis the resins were dried with ethanol and trifluoroacetic acid (TFA) was added using 92% TFA containing 4% triisopropylsilane (TIPS), 1% thioanisol, and 3% H2O for 2 hours. This was done by adding 100 μL per well of the TFA cleavage cocktail over a period of 30 min adding up to a total volume of 1 mL to each well. TFA was then reduced in volume to approximately 100-150 μL by N2 flow and peptides were precipitated by the addition 800 μL of diethylether to each well. The peptides were transferred to Waters solvinert plates and washed thoroughly five times with diethylether 500 μL per well. After washing, the peptides were dried and then dissolved in 80% DMSO. Characterization was performed by UPLC-MS on a setup consisting of a Waters Acquity UPLC system connected to an LCT Premier XE mass spectrometer from Micromass using solvent A 0.1% TFA in H2O and solvent B 0.1% TFA in CH3CN.\nWe synthesized additional positional scanning array (termed solution array) of APPWT using the conventional on-resin SPPS strategy in 96-well plates. This solution array contained 268 peptides (including two wild type peptides). […] Taking advantage of the high purity of this peptide array, we generated six-point FP inhibition curve of each peptide and the obtained dose response curves enabled us to calculate the binding affinity (Ki) of each peptide variant (data not shown)."}, "[3]": {"test": "In vitro plasma stability", "settings": "human, plasma", "experimental": "For time-course assay, 360 μL human plasma was pre-warmed up at 37° C. for 15 min and then spiked with 40 μL of tested peptides (1 mM in 1×PBS). […] Subsequently, 100 μL acetonitrile was added into and then samples were incubated overnight at −20° C. After that, all samples were centrifuged at 13,400 rpm for 10 min and the supernatant was filtered and then analyzed by LC-MS and UPLC (Waters). The area under the curve (AUC) was determined and normalized to the value of the first time point. The half-life (T1/2) was obtained by fitting the data to the one-phase decay equation in GraphPad Prism 9 and expressed as the mean of three individual experiments. For end-point assay, 108 μL human plasma was pre-warmed up at 37° C. for 15 min and then spiked with 12 μL of tested peptides (1 mM in 1×PBS)."}, "[4]": {"settings": "purified peptides, read-out: Ki"}}, "note": "Like-named read-outs stand apart in the source and are kept apart here. Residues, ends and D or L forms follow the SMILES beside them.", "data": [{"smiles": "CC(=O)N[C@@H](CCC(=O)O)C(=O)N[C@@H](CC(=O)O)C(=O)N[C@@H](CC(=O)O)C(=O)N[C@@H](CO)C(=O)N[C@@H](CC(=O)O)C(=O)N[C@H](C(=O)N[C@@H](Cc1c[nH]c2ccccc12)C(=O)N[C@@H](Cc1c[nH]c2ccccc12)C(=O)N[C@@H](Cc1ccc(O)cc1)C(=O)NCC(=O)N[C@@H](C)C(=O)N[C@@H](CC(=O)O)C(=O)N[C@H](C(=O)N[C@@H](CC(=O)O)C(N)=O)[C@@H](C)O)C(C)C", "note": "(Ac-EDDSDVWWYGADTD-NH2)", "values": [{"measurement": "Ki", "setting": "[1]; Table 10, deep mutational scanning validation variants of APPWT, read-out: Ki (nM) mean ± SEM", "result": "108 ± 1", "unit": "nM"}, {"measurement": "Ki", "setting": "[2]", "result": 167, "unit": "nM"}]}, {"smiles": "CC(=O)N[C@@H](CCC(=O)O)C(=O)N[C@@H](CC(=O)O)C(=O)N[C@@H](CC(=O)O)C(=O)N[C@@H](CO)C(=O)N[C@@H](Cc1c[nH]c2ccccc12)C(=O)N[C@H](C(=O)N[C@@H](Cc1c[nH]c2ccccc12)C(=O)N[C@@H](Cc1c[nH]c2ccccc12)C(=O)NCC(=O)NCC(=O)N[C@@H](C)C(=O)N[C@@H](CC(=O)O)C(=O)N[C@H](C(=O)N[C@@H](CC(=O)O)C(N)=O)[C@@H](C)O)C(C)C", "note": "(Ac-EDDSWVWWGGADTD-NH2)", "values": [{"measurement": "Ki", "setting": "[1]; [4]", "result": 100, "unit": "nM"}, {"measurement": "Ki", "setting": "[2]", "result": 78, "unit": "nM"}]}, {"smiles": "CC(=O)N[C@@H](CCC(=O)O)C(=O)N[C@@H](CC(=O)O)C(=O)N[C@@H](CC(=O)O)C(=O)N[C@@H](CO)C(=O)N[C@@H](CC(=O)O)C(=O)N[C@H](C(=O)N[C@@H](Cc1c[nH]c2ccccc12)C(=O)N[C@@H](Cc1c[nH]c2ccccc12)C(=O)NCC(=O)NCC(=O)N[C@@H](C)C(=O)N[C@@H](CC(=O)O)C(=O)N[C@H](C(=O)N[C@@H](CC(=O)O)C(N)=O)[C@@H](C)O)C(C)C", "note": "[APPWT] (Ac-EDDSDVWWGGADTD-NH2)", "values": [{"measurement": "Ki", "setting": "[1]; Table 1, affinity maturation, mean ± SEM, n ≥ 3, read-out: Ki", "result": "557 ± 9", "unit": "nM"}, {"measurement": "Ki", "setting": "[1]; [4]", "result": "557 ± 9", "unit": "nM"}, {"measurement": "Ki", "setting": "[2]", "result": 635, "unit": "nM"}, {"measurement": "half-life", "setting": "[3]", "result": "> 48", "unit": "h"}]}]}
